Earlier results as cited in patent US7294332B2, “Combination therapy (temozolomide and α-IFN) for advanced cancer” (Schering Corporation, priority 1995, dated 2007).

Experiments:
[1] = tested on: advanced melanoma; conditions: patients having advanced melanoma; Newlands ES, et al. Br J Cancer 65 (2), 1992
[2] = tested on: advanced melanoma; conditions: patients with advanced melanoma; Journal of Clinical Oncology, Vol 13, No. 4 (April), 1995

## Cn1nnc2c(C(N)=O)ncn2c1=O [Temozolomide, 3,4-dihydro-3-methyl-4-oxoimidazo-[5,1-d]1,2,3,4-tetrazin-8-carboximide]
[1]
  clinical responses achieved, % of patients: 17%
[2]
  clinical response achieved, % of patients: 21%
